Broadly, the IC50 is the concentration that gives 50% inhibition. One may read the EC50 as the midpoint of the concentration-response curve. The Kd is a measure of binding affinity in units of concentration. Low readings indicate higher affinity, high ones lower affinity. As a reminder, the pKa is the pH at which an ionisable group is half protonated.

For data set [1], the target named is T1, Bromodomain-containing protein 4 (Homo sapiens, UniProt O60885). Nature of the data set: Inhibition of BRD4-BD1 (unknown origin) by TR-FRET assay.
In data set [2] the test system is PBMC. Briefly: Inhibition of IL-6 production in LPS-induced human PBMC preincubated for 1 hr followed by LPS-stimulation and measured after 20 hrs by magnetic beads technique based assay. The following applies: time 21.0 hrs. The format is functional, tissue-based.
For data set [3], the system named is PBMC. Nature of the data set: Inhibition of MCP-1 production in LPS-induced human PBMC preincubated for 1 hr followed by LPS-stimulation and measured after 20 hrs by magnetic beads technique based assay. As to conditions: time 21.0 hrs. It counts as functional, tissue-based.
Data set [4] deals with T2, Mitogen-activated protein kinase 7 (Homo sapiens, UniProt Q13164). Briefly: Inhibition of recombinant human ERK5 using myelin basic protein as substrate by [gamm33P]ATP based HotSpot radiometric assay.
T2 sequence (Q13164 whole entry): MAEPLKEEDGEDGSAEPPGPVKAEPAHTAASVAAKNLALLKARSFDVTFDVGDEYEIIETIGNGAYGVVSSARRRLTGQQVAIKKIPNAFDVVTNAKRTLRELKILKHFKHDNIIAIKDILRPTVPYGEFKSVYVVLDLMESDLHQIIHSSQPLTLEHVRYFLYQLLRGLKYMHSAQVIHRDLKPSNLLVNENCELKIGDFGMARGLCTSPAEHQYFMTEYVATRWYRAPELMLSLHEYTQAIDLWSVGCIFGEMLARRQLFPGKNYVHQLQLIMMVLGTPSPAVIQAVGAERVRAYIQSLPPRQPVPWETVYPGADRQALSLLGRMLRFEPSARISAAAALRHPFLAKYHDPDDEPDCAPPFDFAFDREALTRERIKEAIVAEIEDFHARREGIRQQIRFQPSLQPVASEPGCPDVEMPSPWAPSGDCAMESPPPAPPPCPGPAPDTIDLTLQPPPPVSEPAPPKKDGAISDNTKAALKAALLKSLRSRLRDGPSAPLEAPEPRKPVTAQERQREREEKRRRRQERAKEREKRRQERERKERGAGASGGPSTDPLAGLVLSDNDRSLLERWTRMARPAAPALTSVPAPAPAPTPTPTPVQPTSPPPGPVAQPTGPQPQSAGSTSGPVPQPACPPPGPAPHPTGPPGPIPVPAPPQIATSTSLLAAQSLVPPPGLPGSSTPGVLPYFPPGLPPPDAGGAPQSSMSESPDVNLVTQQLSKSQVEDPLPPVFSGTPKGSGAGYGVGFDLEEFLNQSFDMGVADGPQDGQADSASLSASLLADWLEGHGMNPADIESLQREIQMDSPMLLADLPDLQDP
The target of data set [5] is T3, Voltage-gated inwardly rectifying potassium channel KCNH2 (Homo sapiens, UniProt Q12809). Nature of the data set: Inhibition of human ERG stably expressed in CHO cells at holding potential of -80 mV incubated for 12 mins.
T3 sequence (Q12809 whole entry): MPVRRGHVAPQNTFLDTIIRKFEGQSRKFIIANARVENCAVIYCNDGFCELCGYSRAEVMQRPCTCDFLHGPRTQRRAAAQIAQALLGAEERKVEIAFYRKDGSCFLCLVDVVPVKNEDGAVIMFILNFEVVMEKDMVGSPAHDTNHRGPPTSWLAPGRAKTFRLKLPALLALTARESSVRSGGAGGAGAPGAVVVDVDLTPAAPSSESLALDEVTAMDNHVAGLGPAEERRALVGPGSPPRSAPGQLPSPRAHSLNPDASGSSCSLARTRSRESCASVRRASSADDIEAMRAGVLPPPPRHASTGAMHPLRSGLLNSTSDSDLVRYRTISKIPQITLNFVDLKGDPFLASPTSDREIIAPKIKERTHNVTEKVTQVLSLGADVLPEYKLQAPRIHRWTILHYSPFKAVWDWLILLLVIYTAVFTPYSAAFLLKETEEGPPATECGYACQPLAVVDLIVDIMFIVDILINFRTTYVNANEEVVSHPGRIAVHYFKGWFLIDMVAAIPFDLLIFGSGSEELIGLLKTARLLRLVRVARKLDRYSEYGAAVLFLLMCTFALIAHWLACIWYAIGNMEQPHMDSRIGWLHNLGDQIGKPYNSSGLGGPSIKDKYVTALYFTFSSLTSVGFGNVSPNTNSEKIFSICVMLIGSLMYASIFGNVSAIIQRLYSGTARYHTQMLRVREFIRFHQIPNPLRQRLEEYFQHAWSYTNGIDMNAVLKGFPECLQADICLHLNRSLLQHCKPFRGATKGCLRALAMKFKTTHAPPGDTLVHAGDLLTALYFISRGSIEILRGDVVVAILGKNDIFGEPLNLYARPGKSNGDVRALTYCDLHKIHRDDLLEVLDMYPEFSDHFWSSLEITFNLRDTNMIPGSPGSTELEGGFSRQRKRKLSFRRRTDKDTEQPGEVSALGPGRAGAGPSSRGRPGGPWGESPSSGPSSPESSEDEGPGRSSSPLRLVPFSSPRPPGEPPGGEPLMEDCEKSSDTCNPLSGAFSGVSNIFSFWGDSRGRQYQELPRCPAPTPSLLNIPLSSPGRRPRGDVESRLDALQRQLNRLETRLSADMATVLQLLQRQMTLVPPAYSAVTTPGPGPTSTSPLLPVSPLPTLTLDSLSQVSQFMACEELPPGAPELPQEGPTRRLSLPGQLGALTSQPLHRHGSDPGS
Data set [6] is described as follows: Stability of compound in human liver microsomes assessed as parent compound remaining after 1 hr.
The target in data set [7] is T1, Bromodomain-containing protein 4. Nature of the data set: Inhibition of BRD4 in human PBMC assessed as reduction in LPS-induced TNFalpha secretion preincubated for 1 hr followed by LPS-stimulation and measured after 20 hrs by magnetic beads technique based assay.
In data set [8] the target is T4, Bromodomain testis-specific protein (Homo sapiens, UniProt Q58F21). Nature of the data set: Binding affinity to human partial length BRDT-BD2 (K250 to E382 residues) expressed in bacterial expression system by BROMOscan method.
In data set [9] the target is T4, Bromodomain testis-specific protein. Nature of the data set: Binding affinity to human partial length BRDT-BD1 (N21 to E137 residues) expressed in bacterial expression system by BROMOscan method.
For a further data set, the target named is CREB-binding protein (Homo sapiens, UniProt Q92793). Nature of the data set: Binding affinity to human partial length CREBBP (R1081 to G1197 residues) expressed in bacterial expression system by BROMOscan method.
Sequence of CREB-binding protein (Q92793 whole entry, the tested form may be a part): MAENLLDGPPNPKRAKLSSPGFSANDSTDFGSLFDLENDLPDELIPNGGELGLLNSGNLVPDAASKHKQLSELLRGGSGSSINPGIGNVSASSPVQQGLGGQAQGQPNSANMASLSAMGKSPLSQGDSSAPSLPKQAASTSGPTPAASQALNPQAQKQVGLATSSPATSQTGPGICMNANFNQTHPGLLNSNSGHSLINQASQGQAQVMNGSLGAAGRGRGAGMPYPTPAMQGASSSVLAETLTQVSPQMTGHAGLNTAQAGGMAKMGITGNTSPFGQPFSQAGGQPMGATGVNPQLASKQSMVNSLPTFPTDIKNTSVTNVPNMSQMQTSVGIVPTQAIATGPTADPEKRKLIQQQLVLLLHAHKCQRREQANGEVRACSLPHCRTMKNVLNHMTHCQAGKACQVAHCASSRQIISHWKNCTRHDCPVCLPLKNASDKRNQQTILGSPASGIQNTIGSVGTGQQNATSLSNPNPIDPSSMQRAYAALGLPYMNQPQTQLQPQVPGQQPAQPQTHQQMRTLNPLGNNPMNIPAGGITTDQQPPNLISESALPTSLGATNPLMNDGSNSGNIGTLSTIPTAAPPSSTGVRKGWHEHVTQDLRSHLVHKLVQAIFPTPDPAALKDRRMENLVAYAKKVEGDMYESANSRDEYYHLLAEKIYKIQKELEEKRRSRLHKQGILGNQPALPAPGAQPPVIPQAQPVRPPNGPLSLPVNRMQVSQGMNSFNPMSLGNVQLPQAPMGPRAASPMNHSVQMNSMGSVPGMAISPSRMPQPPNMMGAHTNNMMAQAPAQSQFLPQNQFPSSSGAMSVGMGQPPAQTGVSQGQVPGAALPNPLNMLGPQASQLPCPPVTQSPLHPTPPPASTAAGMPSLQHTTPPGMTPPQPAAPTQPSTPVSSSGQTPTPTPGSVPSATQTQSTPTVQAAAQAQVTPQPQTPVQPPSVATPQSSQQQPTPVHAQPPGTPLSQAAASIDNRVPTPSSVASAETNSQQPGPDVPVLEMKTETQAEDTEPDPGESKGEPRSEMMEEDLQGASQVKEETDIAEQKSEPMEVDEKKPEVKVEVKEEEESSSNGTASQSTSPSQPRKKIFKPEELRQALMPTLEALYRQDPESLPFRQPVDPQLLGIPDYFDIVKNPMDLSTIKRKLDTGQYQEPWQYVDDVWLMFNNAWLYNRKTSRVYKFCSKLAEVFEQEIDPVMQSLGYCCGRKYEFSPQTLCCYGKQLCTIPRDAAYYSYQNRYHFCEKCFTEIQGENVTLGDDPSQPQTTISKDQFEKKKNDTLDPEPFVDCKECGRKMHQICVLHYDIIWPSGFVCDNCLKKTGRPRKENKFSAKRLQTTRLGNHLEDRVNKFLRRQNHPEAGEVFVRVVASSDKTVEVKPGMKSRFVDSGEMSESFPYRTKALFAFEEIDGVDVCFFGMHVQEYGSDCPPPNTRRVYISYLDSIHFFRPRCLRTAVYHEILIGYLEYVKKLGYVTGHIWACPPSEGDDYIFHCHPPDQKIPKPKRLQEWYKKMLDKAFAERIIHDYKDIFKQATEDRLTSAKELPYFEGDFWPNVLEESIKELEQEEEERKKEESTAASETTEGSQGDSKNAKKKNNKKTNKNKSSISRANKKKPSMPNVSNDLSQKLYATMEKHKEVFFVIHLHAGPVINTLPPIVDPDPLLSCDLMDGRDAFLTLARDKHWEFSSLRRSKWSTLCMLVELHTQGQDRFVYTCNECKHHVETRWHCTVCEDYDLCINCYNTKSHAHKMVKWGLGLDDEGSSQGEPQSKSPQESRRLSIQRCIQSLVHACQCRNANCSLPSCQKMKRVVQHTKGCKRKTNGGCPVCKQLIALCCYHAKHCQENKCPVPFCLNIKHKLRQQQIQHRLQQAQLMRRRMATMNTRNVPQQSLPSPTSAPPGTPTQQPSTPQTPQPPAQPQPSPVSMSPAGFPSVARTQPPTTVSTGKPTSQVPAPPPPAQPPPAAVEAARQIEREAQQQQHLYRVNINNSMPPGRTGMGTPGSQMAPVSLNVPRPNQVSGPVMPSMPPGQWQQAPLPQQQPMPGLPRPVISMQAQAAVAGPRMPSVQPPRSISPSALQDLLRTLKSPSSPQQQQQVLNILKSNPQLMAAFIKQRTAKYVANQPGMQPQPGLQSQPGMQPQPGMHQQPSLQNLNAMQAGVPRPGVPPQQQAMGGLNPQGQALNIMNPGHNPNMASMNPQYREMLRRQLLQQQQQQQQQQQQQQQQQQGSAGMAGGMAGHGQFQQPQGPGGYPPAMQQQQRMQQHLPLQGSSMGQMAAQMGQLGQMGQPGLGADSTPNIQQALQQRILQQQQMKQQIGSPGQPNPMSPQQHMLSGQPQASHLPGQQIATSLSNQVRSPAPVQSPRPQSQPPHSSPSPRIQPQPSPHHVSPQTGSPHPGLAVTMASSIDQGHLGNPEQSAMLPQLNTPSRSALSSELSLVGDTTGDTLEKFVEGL
For data set [10], the target named is T1, Bromodomain-containing protein 4. Briefly: Binding affinity to BRD4-BD1 (unknown origin).
Data set [11] deals with T2, Mitogen-activated protein kinase 7. Nature of the data set: Inhibition of ERK5 (unknown origin).
Data set [12] addresses T3, Voltage-gated inwardly rectifying potassium channel KCNH2. Briefly: Inhibition of human ERG.
Data set [13] can be described thus: Dissociation constant, pKa of compound. It counts as physicochemical.
Data set [14] has as its target T1, Bromodomain-containing protein 4. Briefly: Inhibition of BRD4-BD1 (unknown origin).

SMILES strings stand for the structures. Activity calls are given as the source filed them. The calls are words filed in the database; no cut-off is given here.

The compound `CN1C(=O)c2ccccc2Sc2cc(N[C@H]3CC[C@H](O)CC3)ncc21` displayed an IC50 in data set [1] of over 30000 nM. The inhibition result in the data set on PBMC [2] and with PBMC [3] was “Active” throughout.
Turning to `CN1C(=O)c2c(F)ccc(F)c2Oc2cc(N[C@H]3CC[C@H](O)CC3)ncc21`, the IC50 was 2010 nM in data set [1], 213 nM in data set [4] and over 10000 nM in [5]. In addition, the inhibition result in the data set with PBMC [2] and in the data set with PBMC [3] was “Active” throughout. Moreover, the fraction remaining at 1 h in [6] stood at 90%. The EC50 in data set [7] was determined as 430 nM.
As to `CN1C(=O)c2ccccc2S(=O)(=O)c2cc(N[C@H]3CC[C@H](O)CC3)ncc21`, the IC50 in [1] is over 30000 nM. For the same compound, the inhibition result in the data set on PBMC [2] and in the data set on PBMC [3] was “Active” throughout.
Consider `CN1C(=O)c2ccccc2N(C)c2cc(N[C@H]3CC[C@@H](O)CC3)ncc21`, for which the IC50 turned out to be 6910 nM in data set [1] and 2230 nM in [4]. The inhibition entry in the data set on PBMC [2] and with PBMC [3] was “Active” in each case. Also, the EC50 in [7] came to 3070 nM.
`COc1cccc2c1Oc1cc(N[C@H]3CC[C@H](O)CC3)ncc1N(C)C2=O`: the IC50 is 2820 nM in [1], 1100 nM in [4] and over 10000 nM in [5]. The inhibition entry with PBMC [2] and in the data set with PBMC [3] was “Active” each time. For the same compound, the share remaining at 1 h in data set [6] is 85%. The EC50 in data set [7] turned out to be 1380 nM.
With `CCNC(=O)C[C@@H]1N=C(c2ccc(Cl)cc2)c2cc(OC)ccc2-n2c(C)nnc21` [MOLIBRESIB], the equilibrium dissociation constant (Kd) is 60 nM in [8], 112 nM in [9] and 83000 nM on CREB-binding protein. The inhibition entry with PBMC [2] and in the data set with PBMC [3] was “Active” each time.
As to `CN1C(=O)c2cccc(Cl)c2Oc2cc(N[C@H]3CC[C@H](O)CC3)ncc21`, the IC50 in [1] was 12800 nM; in [4], 1050 nM; in data set [5], over 10000 nM. Further, the inhibition entry with PBMC [2] and in the data set with PBMC [3] was “Active” each time. Moreover, the share remaining at 1 h in data set [6] is 103%. Also, the EC50 in [7] worked out at 1170 nM.
In the case of `CCO[C@@H]1CCCC[C@@H]1Nc1cc2c(cn1)N(C)C(=O)c1ccccc1N2C` (relative stereo), the IC50 in data set [1] was 15400 nM; in data set [4], over 10000 nM. Also, the inhibition entry in the data set on PBMC [2] and in the data set with PBMC [3] was “Active” each time. Besides, in data set [7], the EC50 was 2950 nM.
With `CN1C(=O)c2ccccc2N(C)c2cc(N[C@H]3CC[C@H](O)CC3)ncc21`, the Kd in [10] stood at 130 nM. Besides, the IC50 in data set [11] was 89 nM; in data set [1], 5990 nM; in data set [4], 89 nM; in [12] it was over 10000 nM. For the same compound, the inhibition result in the data set with PBMC [2] and with PBMC [3] was “Active” throughout. Further, the EC50 in data set [7] turned out to be 2110 nM. Also, the pKa in data set [13] was determined as 5.06.
Consider `CN1C(=O)c2ccccc2Oc2cc(N[C@H]3CC[C@H](O)CC3)ncc21`, for which the values for the IC50 in data set [1], in data set [4] and in [5] were 9370 nM, 266 nM and over 10000 nM, respectively. For the same compound, the inhibition result with PBMC [2] and in the data set on PBMC [3] was “Active” throughout. Also, the share remaining at 1 h in data set [6] stood at 97%. Further, the EC50 in data set [7] was 2700 nM.
Regarding `CCO[C@H]1CC[C@H](Nc2cc3c(cn2)N(C)C(=O)c2ccccc2N3C)CC1`, the IC50 in data set [1] is 9990 nM; in data set [4], 81 nM. The inhibition result in the data set with PBMC [2] and with PBMC [3] was “Active” in each case. In data set [7], the EC50 is 2740 nM.
Consider `CN1C(=O)c2cccc(F)c2Oc2cc(N[C@H]3CC[C@H](O)CC3)ncc21`, for which the IC50 is 11200 nM in [1], 393 nM in data set [4] and over 10000 nM in data set [5]. For the same compound, the inhibition entry in the data set with PBMC [2] and in the data set with PBMC [3] was “Active” each time. Moreover, the share remaining at 1 h in [6] was 114%. In addition, the EC50 in data set [7] is 1720 nM.
Turning to `CCOc1cc(C(=O)N2CCC(N3CCCC3)CC2)ccc1Nc1cc2c(cn1)N(C)C(=O)c1ccccc1N2C`, binding in data set [10] was characterised by a dissociation constant (Kd) of 22 nM. The IC50 stood at 11 nM in data set [11], 1290 nM in data set [14] and 320 nM in [12]. Besides, the inhibition entry with PBMC [2] and in the data set with PBMC [3] was “Active” throughout. Further, the pKa in [13] turned out to be 9.7.

Source of the values: ChEMBL document CHEMBL4715913, “Discovery of benzo[f]pyrido[4,3-b][1,4]oxazepin-10-one derivatives as orally available bromodomain and extra-terminal domain (BET) inhibitors with efficacy in an in vivo psoriatic animal model” (Bioorg Med Chem, 2021).
